According to patent US8399440B2, “Disease modifying anti-arthritic activity of 2-methoxyestradiol” (EntreMed, Inc., priority 2006, dated 2013):

What was measured:
[1] = test system: lymph node cells from rats with AA; experiment: Lymph node cell proliferation in vitro (3H-thymidine incorporation)
Method: (§2) Because of the effect of 2ME2 treatment on arthritis severity and the response in the spleen during AA, the T lymphocyte reactivity to mitogens the Mycobacterial purified protein derivative (PPD) antigen was evaluated. […] The effect of various concentrations of 2ME2 in vitro on this proliferative response was evaluated. […] To further assess the effect of 2ME2 on lymphocyte responsiveness, lymph node cells harvested from rats treated with 2ME2 (30 mg/kg/d) from day 6-14 post-immunization were tested for proliferative response to PPD and the mitogens, Con A and PHA and compared to lymphocytes from vehicle-treated animals.

[2] = test system: Collagen-Induced Arthritis; experiment: Collagen-induced arthritis (UCLA studies); format: in vivo, Rat (Louvain)
[3] = test system: lymph node cells; experiment: Ex vivo proliferation of lymph node cells from treated rats
Method: as §2

[4] = test system: joint synovium and articular cartilage; experiment: Joint histology and cartilage damage (H&E, safranin O); format: in vivo, Rat (Lewis)
Method: (§1) Tissue samples, including joints, were fixed in 10% phosphate-buffered formalin or AFA fixative ([…], 2% formalin, 5% glacial acetic acid, 20% water), the latter for immunostaining. Samples were then decalcified in formic or acetic acid and paraffin embedded. Sections (5 μm) were stained with hematoxylin-eosin (H&E) using routine techniques. To stain cartilage proteoglycan, separate sections were stained with safranin O (Difco, Detroit, Mich.) for 1 min. as described previously (Issekutz, (2001). To assess microvessel density in the synovium, rabbit anti-mouse laminin polyclonal IgG antibody (Cedarlane Laboratories Limited, Homby, ON) was used to outline vessels, with detection using biotinylated goat anti-rabbit IgG antibody and avidin-biotin complexed with HRPO according to manufacturer's recommendations (Vectastain Elite ABC kit; Vector Laboratories Canada Inc., Burlington, ON).
Even by the H&E staining the cartilage damage is visible on the articular surfaces and margins. This is more profoundly illustrated by the safranin O staining with marked focal proteoglycan loss and fragmentation.

[5] = test system: Arthrogen Collagen MAb-Induced Arthritis; experiment: Arthrogen collagen MAb-induced arthritis (Arthrogen-CIA model of RA); format: in vivo, Mouse (Balb/C)
[6] = test system: PMNL migration to arthritic joints; experiment: 51Cr-labeled PMNL migration to arthritic joints; format: in vivo, Rat (Lewis)
From the text: Rat blood PMNL were isolated from a donor arthritic rat by hydroxyethyl starch (Hespan; Dupont Merck, Wilmington, Del.) exchange transfusion performed through a needle inserted in a femoral vein. The exchanged blood was collected into heparin and acid-citrate-dextrose (ACD, formula A; Fenwal-Travenol, Malton, ON) and the leukocyte-rich plasma was harvested during 1 g sedimentation of red blood cells. The PMNL were then isolated by centrifugation on discontinuous Percoll density gradients of 63% Percoll above 74% Percoll with 10% autologous plasma and calcium and magnesium-free Tyrode's solution (TyS^−/−) for the balance of the suspending medium. After centrifugation (350×g, 30 min at 22° C.) the purified PMNL (>95%) were harvested from the layer above the 74% plasma-Percoll cushion and after washing with TyS^−/−−10% plasma, the cells were radiolabeled with 75 μCi/5×10^7 cells of Na2^51CrO4 (GE Healthcare Bio-Sciences Inc., Baie d'Urfé, QC). After the cells were washed, they were injected i.v. into rats at a dose of 10^7 51Cr-labeled PMNL per animal bearing approximately 1-2×10^5 cpm. These cells were allowed to circulate and migrate for 2 h prior to sacrifice of the rats.
At the time the rats were killed, cardiac blood was obtained to measure the blood leukocyte count and the leukocyte and plasma associated radioactivity. Joints were dissected and segments of limbs sectioned to include carpal, metacarpal, talar and metatarsal joints for analysis as previously reported (Issekutz et al. Lab Invest. (1991), 64:656-63 and Issekutz et al. Arthritis Rheum. (2001), 44:1428-37). The content of ^51Cr in the joints, as well as in dermal skin sites and internal organs, was determined with a Wallac LKB 1280 gamma counter (Fisher Scientific, Nepean, ON). Accumulated isotope in the tissue was expressed as cpm/10^6 cpm injected i.v.

[7] = target: estrogen receptor β (Homo sapiens, UniProt Q92731); settings: LaVallee et al. 2002; cited from earlier work
[8] = test system: Adjuvant-Induced Arthritis (Adoptive Transfer Model); experiment: Adjuvant-induced arthritis, adoptive transfer model; format: in vivo, Rat (Lewis); settings: Dalhousie Study #2; 3, 30 mg/kg/d SC
[9] = test system: synovial microvessels; experiment: Synovial vascularity by laminin immunostaining; format: in vivo, Rat (Lewis); settings: between the various treatment groups and vehicle, any vessel size
Method: as §1
To assess synovial vascularity and angiogenesis, sections were immunostained for laminin to reliably delineate microvessels as well as medium-sized vessels. […] The other commonly used endothelial cell marker, CD31, was also evaluated on the synovial tissue. […] This vascularity was quantitated in synovia from rats treated with the various protocols and compared to vehicle-treated animals. […] Only vessels that were in cross-section were scored. […]

[10] = test system: spleen; experiment: Splenomegaly and spleen histology in adjuvant arthritis; format: in vivo, Rat (Lewis)
Method: During the course of AA in the rat, splenomegaly is a prominent feature due to splenitis, lymphoid hyperplasia and even abscess formation. Therefore the splenic enlargement in these animals was monitored for any effect of 2ME2 on this parameter. In rats that were treated with vehicle, spleen weights increased dramatically, increasing nearly three-fold.
A histological examination of the spleens was undertaken in the different groups. The appearance of a normal rat spleen (A) and vehicle-treated spleen (B).

[11] = Dalhousie Study #1, 30, 100 mg/kg/d PO

Sequence of estrogen receptor β (Q92731 whole entry): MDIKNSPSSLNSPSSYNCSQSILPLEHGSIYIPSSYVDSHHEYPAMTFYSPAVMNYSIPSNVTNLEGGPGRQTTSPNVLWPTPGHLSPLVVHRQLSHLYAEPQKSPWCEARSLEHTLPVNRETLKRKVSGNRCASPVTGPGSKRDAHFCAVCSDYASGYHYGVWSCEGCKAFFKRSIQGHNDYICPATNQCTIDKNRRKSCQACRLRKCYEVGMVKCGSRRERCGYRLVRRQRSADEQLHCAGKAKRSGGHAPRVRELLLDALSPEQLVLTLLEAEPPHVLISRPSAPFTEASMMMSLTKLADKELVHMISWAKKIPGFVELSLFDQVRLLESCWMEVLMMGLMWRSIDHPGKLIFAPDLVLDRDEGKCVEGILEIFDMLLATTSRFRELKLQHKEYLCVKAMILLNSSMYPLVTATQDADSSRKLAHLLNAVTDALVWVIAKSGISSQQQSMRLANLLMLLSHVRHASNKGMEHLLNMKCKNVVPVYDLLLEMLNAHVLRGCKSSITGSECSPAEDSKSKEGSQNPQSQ

COc1cc2c(cc1O)CC[C@@H]1[C@@H]2CC[C@]2(C)[C@@H](O)CC[C@@H]12 [2ME2, 2-methoxyestradiol]
IC50, lymphocyte response to PPD ([1]; 2ME2 added on day of culture initiation, 6 days): about 0.3 μg/mL
viability ([1]; all cultures): ≥ 85 % live cells
spontaneous proliferation in unstimulated cultures ([1]; in vitro): decreased
proliferation induced by the mitogens (Con A, PHA) ([1]; in vitro, compared with effect on PPD response): comparable inhibitory effect
effect on viability ([1]; lymph node cell cultures): no effect on viability
onset of disease ([2]; UCLA Study #1, PO): Delays onset
inhibition of clinical arthritic score and bone erosion ([2]; UCLA Study #1, prevention 30, 100 mg/kg/d PO, treatment 10, 30, 100 mg/kg/d PO): Dose dependent
inhibition of clinical arthritic score, inflammation, and bone erosion, cartilage degradation and pannus formation ([2]; UCLA Study #2, treatment from day 10, 50 mg/kg BID, 100 or 300 mg/kg/d PO or 60 mg/kg/d SC osmotic pumps): Dose dependent
proliferative response to PPD (DNA incorporation) ([3]; lymphocytes from rats given 30 mg/kg/d day 6-14, compared to vehicle-treated): significantly reduced
proliferation induced by Con A or PHA ([3]; lymphocytes from rats given 30 mg/kg/d day 6-14, no 2ME2 added to cultures): no difference
articular cartilage surfaces and proteoglycan staining ([4]; 100 mg/kg/d initiated at day 6 post-immunization): preservation of articular cartilage surfaces and proteoglycan staining
leukocyte infiltration of the synovium ([4]; 100 mg/kg/d initiated at day 6 post-immunization, compared to vehicle): less intense leukocyte infiltration
cartilage preservation ([4]; treatment delayed to day 10): cartilage preservation was still observed
leukocyte cellularity in the synovium ([4]; treatment delayed to day 10): less noticeably affected
arthritic score ([5]; FIG. 1): decreases
synovial inflammation ([5]; FIG. 2, 100 mg/kg versus control): inhibits
periarticular inflammatory infiltrate and fibrosis ([5]; FIG. 3, 100 mg/kg versus control): inhibition
loss of proteoglycan in articular cartilage and induction of osteoclast activity ([5]; FIG. 4, 100 mg/kg versus control): prevents
severity of RA progression ([5]; FIG. 5): inhibit
percent inhibition of arthritic score ([5]; FIG. 7, 2ME2 in combination with methotrexate): unexpected increase
radiographic assessment ([5]; FIG. 8): radiographic evidence of 2ME2's anti-rheumatic effect
inhibition of clinical arthritic score, inflammation, cartilage degradation, bone resorption, and pannus formation ([5]; Study SMP04-040, 1, 10, 100 mg/kg/d PO, prevention (start 1 day after induction), Panzem NCD formulation): Dose-dependent
inhibition of clinical arthritic score, inflammation, cartilage degradation, bone resorption, and pannus formation ([5]; Study SMP05-009, 100 mg/kg/d, 100 mg/kg/week, 100 mg/kg twice a week PO, prevention): Regimen-
inhibition of clinical arthritic score, inflammation, cartilage degradation, bone resorption, and pannus formation ([5]; Study SMP05-010, 10, 25, 50, 75, 100 mg/kg/d PO, prevention): Dose-dependent
inhibition of clinical arthritic score upon combination of the two drugs ([5]; Study SMP05-046, 2ME2 10 or 100 mg/kg/d PO combined with MTX 0.1 or 1 mg/kg/d IP, prevention): Additive
pathology in the liver ([5]; Study SMP05-046, 2ME2 PO in combination with MTX IP): No pathology
pathology in the liver ([5]; Study SMP05-046, either drug alone (2ME2 10 or 100 mg/kg/d PO; MTX 0.1 or 1 mg/kg/d IP)): No pathology
accumulation of 51Cr-labeled PMNL in hind limb joints ([6]; 100 or 30 mg/kg/d initiated at day 6 (preclinical phase)): significantly decreased
immune cell migration to the joint [6, 11]: Blocked
accumulation of 51Cr-labeled PMNL in joints ([6]; delayed treatment starting on day 10, tendency for a decrease): did not reach significance
affinity for estrogen receptor β [7]: low affinity
inhibition of clinical arthritic score, inflammation, and bone destruction [8]: Dose dependent
vessel density per 0.8 mm^2 (small, medium, large vessels) in synovium [9]: no significant difference
spleen histology ([10]; 30 mg/kg/d from day 6-14 post-immunization, no increase in giant cells or abscess formation, no lymphoid hyperplasia): Only mild splenitis
increase in spleen weight (splenic enlargement) ([10]; 30 mg/kg/d started on day 6 post-immunization): completely inhibited
splenic abscess formation, giant cells, and lymphoid hyperplasia [10, 11]: Decreased
increase in spleen weight (splenic enlargement) ([10]; high dose (100 mg/kg/d) started on day 6 post-immunization): completely inhibited
splenic enlargement ([10]; treatment initiated at day 10): markedly inhibited
